Here are results for one compound from patent publication US20250032460A1, “METHODS OF TREATING NEUROLOGICAL DISORDERS” (MapLight Therapeutics, Inc., priority 2021, published 2025).

In one data set the test system is MPTP-Induced Dyskinesia. Nature of the data set: L-dopa-induced dyskinesia in MPTP-lesioned macaques. In kind it is in vivo, cynomolgus macaques. From the text: It is now used in non-human primates to model primary parkinsonian motor symptom phenotypes and subsequent response to therapies such as L-dopa including dyskinesia-thus it can be used as foundational model for LID. See Huat 2012. (Huot P, Johnston T H, Koprich J B, Fox S H, Brotchie J M. L-DOPA pharmacokinetics in the MPTP-lesioned macaque model of Parkinson's disease. Neuropharmacology. 2012 October; 63(5):829-36.) Having both face validity and construct validity, the MPTP non-human primate model is considered the animal model of PD motor symptoms with the highest translational relevance.
A study was conducted in seven female MPTP-lesioned cynomolgus macaques that received chronic repeat treatment with L-dopa and in response manifested stable and reproducible dyskinesia that was choreic and dystonic in nature. Macaque behaviors were assessed following a single 1 mg/kg dose of Compound 1 or vehicle in combination with high-dose of L-dopa delivered as Madopar™ with a dose titrated for LID symptoms in each test animal. The ‘on time’ therapeutic effects and abnormal LID movements were assessed for 6 hours following administration of L-dopa. A single Compound 1 oral dose of 1 mg/kg or vehicle was administered at the same time as L-dopa at the start of behavioral observations. All animals received all treatments in a cross-over design with a minimum of 72 hours between repeat treatments in each animal. The therapeutic and LID behaviors were scored by trained raters supervised by a neurologist in a blinded fashion using high-definition video recordings and the non-human primate dyskinesia rating scale. See Fox 2012. (Fox S H, Johnston T H, Li Q, Brotchie J, Bezard E. A critique of available scales and presentation of the Non-Human Primate Dyskinesia Rating Scale. Mov Disord. 2012 Sep. 15; 27(11):1373-8.)

The next data set can be described thus: in vivo. As to conditions: cynomolgus monkey, po. As for the experimental part:
The following example characterized the pharmacokinetics (PK) of Compound 1 in Cynomolgus Monkey following single oral (PO) Compound 1 dose administration. The compound was administered via oral gavage at 0.3 mg/kg and 1 mg/kg, formulated as solution in saline. After dosing, plasma was collected to characterize the PK profiles of Compound 1.

The mark [1] stands for this setting: Compound 1 1 mg/kg PO with high-dose L-dopa, vs vehicle.

Each structure is given as a SMILES string.

The AUC(0-inf) is total exposure, with the tail of the curve extrapolated. Read a low AUC(0-inf) as less exposure. The AUC(0-t) is exposure summed from dosing to a finite time, without extrapolation to infinity. High values mean high exposure, low ones low exposure. By Cmax is commonly meant the highest concentration seen after dosing. A word on the Tmax: it is the time at which the peak concentration occurs. In general, half-life refers to the time needed for the level to fall by half in the phase considered. Consider `Cc1noc([C@@]23CNC[C@@H]2C3)n1` [Compound 1, 1-(3-methyl-[1,2,4]oxadiazol-5-yl)-(1R,5R)-3-aza-bicyclo[3.1.0]hexane], for which the “anti-parkinsonian benefit of L-DOPA and overall duration of on-time” value in the data set with MPTP-Induced Dyskinesia (Compound 1 1 mg/kg PO with high-dose L-dopa) was “no reduction”. In the data set on MPTP-Induced Dyskinesia (setting [1]), the “decrease in the duration of ‘bad’ on-time (on-time associated with disabling dyskinesia)” value came to 41% and the “increase in the duration of ‘good’ on-time (lack of, or only non-disabling dyskinesia)” value amounted to 143%. Moreover, the “reduction of median levels of dyskinesia during the 0-1 h period” value in the data set on MPTP-Induced Dyskinesia (Compound 1 1 mg/kg PO with high-dose L-dopa, vs vehicle, P<0.001) is listed as 91%. For the same compound, in the data set with MPTP-Induced Dyskinesia (Compound 1 1 mg/kg PO with high-dose L-dopa, vs vehicle, P=0.0156), the “reduction of median levels of dyskinesia cumulated over the 0-2 h period” value was determined as 42%. For the same compound, the “median levels of dyskinesia during the 0-1 h period” value in the data set on MPTP-Induced Dyskinesia (Compound 1 1 mg/kg PO with high-dose L-dopa, vehicle 11) is on record as 1. Besides, the “median levels of dyskinesia cumulated over the 0-2 h period” value in the data set on MPTP-Induced Dyskinesia (Compound 1 1 mg/kg PO with high-dose L-dopa, vehicle 33) came out at 19. Moreover, the “animals with a robust reduction in LID” value in the data set with MPTP-Induced Dyskinesia (Compound 1 1 mg/kg PO, seven animals in final analyses) is given as “six of the seven animals”. In addition, in “in vivo” (0.3 mg/kg), the AUC(0-inf) was found to be 212 ng·h/mL, the exposure AUC(0-t) was determined as 208 ng·h/mL, the concentration peaked (Cmax) at 216 ng/mL and the Tmax is 0.417 h. In “in vivo” (0.3 mg/kg), this compound showed a half-life of 2.82 h. For the same compound, in the data set “in vivo” (1 mg/kg), the total exposure AUC(0-inf) stood at 988 ng·h/mL, the AUC(0-t) was found to be 982 ng·h/mL, the highest level (Cmax) was 686 ng/mL and the Tmax was determined as 1 h. Also, the half-life in the data set “in vivo” (1 mg/kg) is 2.28 h.
